Measured values as given in PMC7570910, “8-Hydroxyquinoline Glycoconjugates Containing Sulfur at the Sugar Anomeric Position—Synthesis and Preliminary Evaluation of Their Cytotoxicity” (Molecules, 2020).

Legend:
Type in all cases: cell-based
HCT-116 cells [1] = assay: MTT cytotoxicity assay, HCT-116; conditions: Homo sapiens, incubation time 24 h, mean ± SD (n = 3)
MCF-7 cells [2] = assay: MTT cytotoxicity assay, MCF-7; conditions: Homo sapiens, MCF7, incubation time 72 h, mean ± SD (n = 3)
Method: (§1) In vitro cytotoxicity studies of the obtained building blocks and glycoconjugates were carried out on cell lines characterized by the high expression of GLUT transporters and the strongly changed glucose metabolism (strong Warburg effect). […] Cytotoxicity was evaluated using the MTT assay.
The human cell line MCF-7 was obtained from collections at the Maria Sklodowska-Curie Memorial Cancer Center and Institute of Oncology, branch in Gliwice, Poland. […] The culture media were purchased from EuroClone and HyClone. Fetal bovine serum (FBS) was delivered by EURx, Poland, and Antibiotic Antimycotic Solution (100×) by Sigma-Aldrich, Germany. The cells were cultured under standard conditions at 37 °C in a humidified atmosphere at 5% CO2.
(§2) The viability of the cells was determined using an MTT (3-[4,5–dimethylthiazol-2-yl]-2,5-diphenyltetrazolium bromide) test (Sigma-Aldrich). Stock solutions of tested compounds were prepared in DMSO and diluted with the appropriate volumes of the growth medium directly before the experiment. […] The cell cultures were incubated for 24 h at 37 °C in a humidified atmosphere of 5% CO2. Then, the culture medium was removed, replaced with the solution of the tested compounds in medium with varying concentrations, and incubated for further 24 h or 72 h. After that, the medium was removed, and the MTT solution (50 µL, 0.5 mg/mL in PBS) was added. After 3 h of incubation, the MTT solution was removed, and the precipitated formazan was dissolved in DMSO. Finally, the absorbance at the 570 nm wavelength was measured spectrophotometrically with the plate reader. The experiment was conducted in at least three independent iterations with four technical repetitions. The IC50 values were calculated using CalcuSyn software (version 2.0, Biosoft, Cambridge, UK).

[3] = system: Normal Human Dermal Fibroblasts-Neonatal (NHDF-Neo); assay: MTT cytotoxicity assay, NHDF-Neo; conditions: incubation time 24 h, mean ± SD (n = 3)
Method: as §1
[…] […] The culture media were purchased from EuroClone and HyClone. Fetal bovine serum (FBS) was delivered by EURx, Poland, and Antibiotic Antimycotic Solution (100×) by Sigma-Aldrich, Germany. The cells were cultured under standard conditions at 37 °C in a humidified atmosphere at 5% CO2.
as §2

HCT-116 cells [4] = assay: Influence of metal ions on cellular proliferation (MTT with Cu2+), HCT-116; conditions: Homo sapiens, MTT assay, 24 h, addition of copper acetate at 100 µM
Method: (§3) Cultured cancer cells, in contrast to in vivo environment, are characterized by a low copper level. Therefore, additional experiments were carried out for compounds whose expected mechanism of action is based on the chelation of metal ions. The antiproliferative activities of glycoconjugates 67, 68, 70, and 71 were tested in the presence of Cu^2+ ions. The effect of the interaction of glycoconjugate complexes with metal ions on cell proliferation was measured by adding a copper salt solution to the growth medium and observing the rate of cell growth compared to copper-untreated cells.
(§4) During the appropriate experiments, the cells (MCF-7, HCT-116, and NHDF-Neo) were treated with solutions of glycoconjugate 67, 68, 70, or 71 in medium culture, supplemented with 100 µM copper acetate, and then their proliferation was measured by the MTT assay. The control system was cells suspended in medium supplemented with DMSO in the amount used to dissolve the compounds and the addition of the same amount of copper. […] The highest cytotoxic activity of the compounds was observed against the MCF-7 cell line. […] This confirmed the strong sensitivity of breast cancer cells to 8-HQ derivatives.
(§5) The cells were seeded into 96-well plates at concentration 1 × 10^4 (HCT 116, NHDF-Neo) or 5 × 10^3 (MCF-7) per well. The cell cultures were incubated for 24 h at 37 °C in a humidified atmosphere of 5% CO2. Then, the culture medium was removed, replaced with the solution of the tested compounds in medium with varying concentrations. Additionally, 100 µM solution of Cu(CH3COO)2 was added into wells with tested compounds. After 24 h or 72 h incubation, the MTT assay was performed.

MCF-7 cells [5] = assay: Influence of metal ions on cellular proliferation (MTT with Cu2+), MCF-7; conditions: Homo sapiens, MCF7; MTT assay, 72 h, addition of copper acetate at 100 µM
Method: as §3, §4
It can be seen that the greatest differences in cell survival occurred in the case of MCF-7 cell lines. A significant decrease in the proliferation of MCF-7 cells was observed after treatment with glycoconjugates at a concentration of 50 µM in the presence of Cu^2+ (cell viability 10–28%), compared to experiments with glycoconjugates alone. In this case, the cytotoxicity of glycoconjugates increased about three-fold in the presence of Cu(II) ions. […] For HCT-116 and NHDF-Neo cell lines, only slight differences in cell viability were observed after treatment with free compounds and when […] ions were added.
as §5

[6] = system: Normal Human Dermal Fibroblasts-Neonatal (NHDF-Neo); assay: Influence of metal ions on cellular proliferation (MTT with Cu2+), NHDF-Neo; conditions: MTT assay, 24 h, addition of copper acetate at 100 µM
Method: as §3, §4, §5

| IC50 (HCT-116 cells [4]) [µM] | IC50 (MCF-7 cells [5]) [µM] | Compound | IC50 (HCT-116 cells [1]) [µM] | IC50 (MCF-7 cells [2]) [µM] | IC50 [3] [µM] | IC50 [6] [µM] |
| --- | --- | --- | --- | --- | --- | --- |
| 74.5 ± 0.16 | 28.9 ± 1.52 | CC(=O)OC[C@H]1O[C@@H](Sc2ccc(NC(=O)Cn3cc(COc4cccc5cccnc45)nn3)cn2)[C@H](OC(C)=O)[C@@H](OC(C)=O)[C@@H]1OC(C)=O [Compound 67] | 146 ± 3.49 | 69.7 ± 3.5 | 71.8 ± 6.7 | 71.4 ± 1.35 |
| – | – | CC(=O)OC[C@H]1O[C@@H](SCc2cn(CCCOc3cccc4cccnc34)nn2)[C@H](OC(C)=O)[C@@H](OC(C)=O)[C@H]1OC(C)=O [Compound 60] | 304.8 ± 1.34 | 212 ± 3.46 | 421.2 ± 0.14 | – |
| – | – | O=C(Cn1cc(COc2cccc3cccnc23)nn1)Nc1ccc(S[C@@H]2O[C@H](CO)[C@@H](O)[C@H](O)[C@H]2O)nc1 [Compound 69] | 210.4 ± 0.55 | 144 ± 2.68 | 163.81 ± 0.01 | – |
| – | – | CC(=O)OC[C@H]1O[C@@H](Sc2ccc(NC(=O)CN=[N+]=[N-])cn2)[C@H](OC(C)=O)[C@@H](OC(C)=O)[C@H]1OC(C)=O [Compound 34, (5-azidoacetamide-2-pyridyl) 2,3,4,6-tetra-O-acetyl-1-thio-β-D-galactopyranoside] | 541.4 ± 3.73 | 383 ± 4.23 | – | – |
| – | – | Oc1cccc2cccnc12 [Compound 8HQ, 8-hydroxyquinoline] | > 800 | 0.24 ± 0.01 | > 800 | – |
| – | – | CC(=O)OC[C@H]1O[C@@H](SCc2cn(CCCOc3cccc4cccnc34)nn2)[C@H](OC(C)=O)[C@@H](OC(C)=O)[C@@H]1OC(C)=O [Compound 59] | 173 ± 3.48 | 153.3 ± 0.25 | 229.1 ± 2.06 | – |
| 73.9 ± 2.99 | 25.9 ± 1.76 | CC(=O)OC[C@H]1O[C@@H](Sc2ccc(NC(=O)OCc3cn(CCCOc4cccc5cccnc45)nn3)cn2)[C@H](OC(C)=O)[C@@H](OC(C)=O)[C@@H]1OC(C)=O [Compound 70] | 63.5 ± 2.37 | 67.5 ± 1.58 | 64 ± 5.34 | 68.4 ± 1.11 |
| – | – | CC(=O)OC[C@H]1O[C@@H](Sc2ccc(NC(=O)CN=[N+]=[N-])cn2)[C@H](OC(C)=O)[C@@H](OC(C)=O)[C@@H]1OC(C)=O [Compound 33, (5-azidoacetamide-2-pyridyl) 2,3,4,6-tetra-O-acetyl-1-thio-β-D-glucopyranoside] | 13.39 ± 0.1 | 6.39 ± 0.07 | 11.2 ± 0.31 | – |
| 83 ± 1.37 | 20.5 ± 1.55 | CC(=O)OC[C@H]1O[C@@H](Sc2ccc(NC(=O)OCc3cn(CCCOc4cccc5cccnc45)nn3)cn2)[C@H](OC(C)=O)[C@@H](OC(C)=O)[C@H]1OC(C)=O [Compound 71] | 90.68 ± 0.52 | 68.3 ± 3.68 | 75.26 ± 0.38 | 69.3 ± 2.9 |
| – | – | Cc1ccc2cccc(OCCCn3cc(CS[C@@H]4O[C@H](CO)[C@@H](O)[C@H](O)[C@H]4O)nn3)c2n1 [Compound 65] | > 800 | > 800 | – | – |
| – | – | COc1cccc2c1C(=O)c1c(O)c3c(c(O)c1C2=O)C[C@@](O)(C(=O)CO)C[C@@H]3O[C@H]1C[C@H](N)[C@H](O)[C@H](C)O1 [Doxorubicin, reference compound] | 5.59 ± 0.14 | 0.67 ± 0.01 | > 20 | – |
| – | – | Cc1ccc2cccc(O)c2n1 [Compound 2Me8HQ, 8-hydroxyquinaldine, reference compound] | > 800 | – | – | – |
| – | – | C#CCOC(=O)Nc1ccc(S[C@@H]2O[C@H](CO)[C@@H](O)[C@H](O)[C@H]2O)nc1 [Compound 38] | > 800 | > 800 | – | – |
| – | – | CC(=O)OC[C@H]1O[C@@H](SCc2cn(CCCOc3cccc4ccc(C)nc34)nn2)[C@H](OC(C)=O)[C@@H](OC(C)=O)[C@@H]1OC(C)=O [Compound 61] | 108 ± 1.62 | 130.4 ± 0.2 | 260 ± 7.65 | – |
| 96.01 ± 0.59 | 23.8 ± 0.48 | CC(=O)OC[C@H]1O[C@@H](Sc2ccc(NC(=O)Cn3cc(COc4cccc5cccnc45)nn3)cn2)[C@H](OC(C)=O)[C@@H](OC(C)=O)[C@H]1OC(C)=O [Compound 68] | 130 ± 1.31 | 96.3 ± 5.99 | 111 ± 2.78 | 83.6 ± 3.03 |
| – | – | OC[C@H]1O[C@@H](SCc2cn(CCCOc3cccc4cccnc34)nn2)[C@H](O)[C@@H](O)[C@@H]1O [Compound 63] | > 800 | > 800 | – | – |
| – | – | O=C(Nc1ccc(S[C@@H]2O[C@H](CO)[C@@H](O)[C@H](O)[C@H]2O)nc1)OCc1cn(CCCOc2cccc3cccnc23)nn1 [Compound 72] | > 800 | 739.2 ± 3.79 | > 800 | – |
| – | – | C#CCOC(=O)Nc1ccc(S[C@@H]2O[C@H](COC(C)=O)[C@@H](OC(C)=O)[C@H](OC(C)=O)[C@H]2OC(C)=O)nc1 [Compound 36, (5-(((prop-2-yn-1-yloxy)carbonyl)amino)-2-pyridyl) 2,3,4,6-tetra-O-acetyl-1-thio-β-D-glucopyranoside] | 125 ± 8.98 | 38.3 ± 2.44 | 41.7 ± 3.4 | – |
| – | – | Cc1ccc2cccc(OCCCn3cc(CS[C@@H]4O[C@H](CO)[C@H](O)[C@H](O)[C@H]4O)nn3)c2n1 [Compound 66] | > 800 | > 800 | – | – |
| – | – | CC(=O)OC[C@H]1O[C@@H](SCc2cn(CCCOc3cccc4ccc(C)nc34)nn2)[C@H](OC(C)=O)[C@@H](OC(C)=O)[C@H]1OC(C)=O [Compound 62] | 324 ± 1.61 | 244 ± 3.04 | 667.6 ± 6.43 | – |
| – | – | [N-]=[N+]=NCC(=O)Nc1ccc(S[C@@H]2O[C@H](CO)[C@@H](O)[C@H](O)[C@H]2O)nc1 [Compound 35, (5-azidoacetamide-2-pyridyl) 1-thio-β-D-glucopyranoside] | > 800 | > 800 | – | – |
| – | – | C#CCOC(=O)Nc1ccc(S[C@@H]2O[C@H](COC(C)=O)[C@H](OC(C)=O)[C@H](OC(C)=O)[C@H]2OC(C)=O)nc1 [Compound 37] | 456.7 ± 3.85 | 392 ± 5.29 | – | – |
